US10696615B2, “Prenylated hydroxystilbenes” (The University of Sydney, priority 2011, dated 2020)
≈ marks a conversion by molar mass, not a printed value. Where two headings read alike, the source gives them in different places.

Legend:
CDK2/CyclinA2 = CDK2/CyclinA2 (Homo sapiens, UniProt P24941); assay: Kinase activity assay; type: biochemical; details: listed = inhibited more than 60%
Method: (§1) • Kinase-Glo(Plus)/ADP-Gloassay buffer 25 mMHEPES, 10 mMMgCl2, 0.01% Triton X-100, 100 μg/mLBSA, 2.5 mMDTT, pH7.4. • Caliper assay buffer 100 mMHEPES, 10 mMMgCl2, 100 μl/L Brij35 (30%), 1 mMDTT, pH7.4. Assay Substrates • MBP protein, UnactiveMEK1, Rbprotein were purchased from SignalChem. Poly(glu:tyr)(4:1) was purchased from Sigma. PIP2 was purchased from Cayman. Peptide substrates were synthesized in HD Biosciences, China. ATP was purchased from Sigma. KinaseGloPlus reagent, KinaseGloreagent and ADP Gloreagent were purchased from Promega Assay Procedure—Caliper Format
(§2) Mix Kinases, substrate, ATP and compound in 96-well assay plate, total volume is 50 μL. Incubate assay plate at 30° C. for 1 hour. Stop reaction by adding 20 μL of 35 mM EDTA and transfer 26 μL stopped reaction to 384-well assay plate. Read the assay plate on the plate reader.
(§3) Mix Kinases, substrate, ATP and compound in 384-well assay plate, total volume is 10 μl. Incubate assay plate at 30° C. for 1 hour. Add 10 μl/well of ADP GloReagent to the assay plate, incubate at 27° C. for 40 min.
(§4) Add 20 μl/well Detection Reagent to the assay plate, incubate at 27° C. for 30 min. Read the assay plate on the plate reader
(§5) Mix Kinase, substrate, ATP and compound in 384-well assay plate, total volume is 10 μl. Incubate assay plate at 30° C. for 1 hour. Add 10 μl/well KinaseGlo(Plus) reagent to the reaction mixture, and then incubate at 27° C. for 20 min. Read the assay plate on plate reader. • Hundred percent effect was performed without compound and enzyme, but containing ATP and substrate. • Zero percent effect was carried out without compound, but containing ATP, substrate and enzyme. • SB202190 is reference compounds for kinase p38β; Staurosporine(STSP) is reference compound for the remaining kinases. Results

PI3Kδ = PI3Kδ (Homo sapiens, UniProt O00329); assay: Kinase activity assay; type: biochemical; details: listed = inhibited more than 60%
Sequence of PI3Kδ (O00329 whole entry, species assumed): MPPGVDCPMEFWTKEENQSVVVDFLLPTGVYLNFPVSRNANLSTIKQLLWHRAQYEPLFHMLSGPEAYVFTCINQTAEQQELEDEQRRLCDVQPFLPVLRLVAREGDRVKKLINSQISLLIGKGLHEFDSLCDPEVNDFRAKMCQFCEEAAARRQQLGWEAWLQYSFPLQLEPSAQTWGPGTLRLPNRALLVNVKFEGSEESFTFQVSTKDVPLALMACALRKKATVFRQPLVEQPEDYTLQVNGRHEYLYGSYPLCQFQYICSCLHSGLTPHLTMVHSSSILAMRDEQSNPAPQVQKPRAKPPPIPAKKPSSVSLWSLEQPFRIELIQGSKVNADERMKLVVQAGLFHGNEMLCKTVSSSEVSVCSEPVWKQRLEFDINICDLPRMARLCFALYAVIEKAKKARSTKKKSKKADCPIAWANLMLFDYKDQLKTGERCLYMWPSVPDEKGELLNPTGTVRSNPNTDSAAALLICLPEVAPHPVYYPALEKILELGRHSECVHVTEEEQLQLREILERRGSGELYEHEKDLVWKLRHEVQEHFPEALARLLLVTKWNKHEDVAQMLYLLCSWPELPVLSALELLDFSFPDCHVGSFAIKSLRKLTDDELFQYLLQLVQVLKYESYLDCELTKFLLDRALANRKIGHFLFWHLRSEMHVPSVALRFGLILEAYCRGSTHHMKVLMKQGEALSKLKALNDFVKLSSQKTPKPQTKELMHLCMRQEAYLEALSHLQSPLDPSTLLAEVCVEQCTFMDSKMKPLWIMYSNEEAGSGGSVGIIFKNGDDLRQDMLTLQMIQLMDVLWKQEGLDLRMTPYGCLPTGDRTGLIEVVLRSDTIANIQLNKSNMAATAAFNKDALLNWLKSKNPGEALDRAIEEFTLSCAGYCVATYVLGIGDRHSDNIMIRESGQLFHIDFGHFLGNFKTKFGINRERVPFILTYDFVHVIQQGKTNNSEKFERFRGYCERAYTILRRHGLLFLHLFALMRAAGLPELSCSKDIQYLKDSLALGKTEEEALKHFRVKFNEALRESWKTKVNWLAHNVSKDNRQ
Sequence of PI3Kδ (P27986 whole entry partner, species assumed): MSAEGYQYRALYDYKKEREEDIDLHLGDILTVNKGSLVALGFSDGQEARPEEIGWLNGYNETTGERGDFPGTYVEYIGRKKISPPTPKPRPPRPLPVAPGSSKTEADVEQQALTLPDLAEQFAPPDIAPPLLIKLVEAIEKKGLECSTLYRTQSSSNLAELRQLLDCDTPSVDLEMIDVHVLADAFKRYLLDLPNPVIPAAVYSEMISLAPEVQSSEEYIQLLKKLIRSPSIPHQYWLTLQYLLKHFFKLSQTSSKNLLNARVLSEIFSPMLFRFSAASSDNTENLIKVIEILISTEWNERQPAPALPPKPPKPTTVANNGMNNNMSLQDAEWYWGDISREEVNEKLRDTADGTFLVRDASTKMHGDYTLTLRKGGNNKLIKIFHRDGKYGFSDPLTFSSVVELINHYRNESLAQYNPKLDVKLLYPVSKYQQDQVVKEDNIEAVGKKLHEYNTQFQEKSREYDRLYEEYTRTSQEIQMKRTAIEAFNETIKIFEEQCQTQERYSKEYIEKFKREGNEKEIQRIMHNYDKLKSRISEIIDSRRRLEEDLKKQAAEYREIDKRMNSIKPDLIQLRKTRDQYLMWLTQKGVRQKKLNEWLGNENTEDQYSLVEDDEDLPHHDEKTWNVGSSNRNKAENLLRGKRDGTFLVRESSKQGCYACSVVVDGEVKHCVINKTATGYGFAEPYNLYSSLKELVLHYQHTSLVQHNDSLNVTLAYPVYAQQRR
Method: as §1, §2, §3, §4, §5

PI3Kα = PI3Kα (Homo sapiens, UniProt P42336); assay: Kinase activity assay; type: biochemical; details: listed = inhibited more than 60%
Sequence of PI3Kα (P42336 whole entry, species assumed): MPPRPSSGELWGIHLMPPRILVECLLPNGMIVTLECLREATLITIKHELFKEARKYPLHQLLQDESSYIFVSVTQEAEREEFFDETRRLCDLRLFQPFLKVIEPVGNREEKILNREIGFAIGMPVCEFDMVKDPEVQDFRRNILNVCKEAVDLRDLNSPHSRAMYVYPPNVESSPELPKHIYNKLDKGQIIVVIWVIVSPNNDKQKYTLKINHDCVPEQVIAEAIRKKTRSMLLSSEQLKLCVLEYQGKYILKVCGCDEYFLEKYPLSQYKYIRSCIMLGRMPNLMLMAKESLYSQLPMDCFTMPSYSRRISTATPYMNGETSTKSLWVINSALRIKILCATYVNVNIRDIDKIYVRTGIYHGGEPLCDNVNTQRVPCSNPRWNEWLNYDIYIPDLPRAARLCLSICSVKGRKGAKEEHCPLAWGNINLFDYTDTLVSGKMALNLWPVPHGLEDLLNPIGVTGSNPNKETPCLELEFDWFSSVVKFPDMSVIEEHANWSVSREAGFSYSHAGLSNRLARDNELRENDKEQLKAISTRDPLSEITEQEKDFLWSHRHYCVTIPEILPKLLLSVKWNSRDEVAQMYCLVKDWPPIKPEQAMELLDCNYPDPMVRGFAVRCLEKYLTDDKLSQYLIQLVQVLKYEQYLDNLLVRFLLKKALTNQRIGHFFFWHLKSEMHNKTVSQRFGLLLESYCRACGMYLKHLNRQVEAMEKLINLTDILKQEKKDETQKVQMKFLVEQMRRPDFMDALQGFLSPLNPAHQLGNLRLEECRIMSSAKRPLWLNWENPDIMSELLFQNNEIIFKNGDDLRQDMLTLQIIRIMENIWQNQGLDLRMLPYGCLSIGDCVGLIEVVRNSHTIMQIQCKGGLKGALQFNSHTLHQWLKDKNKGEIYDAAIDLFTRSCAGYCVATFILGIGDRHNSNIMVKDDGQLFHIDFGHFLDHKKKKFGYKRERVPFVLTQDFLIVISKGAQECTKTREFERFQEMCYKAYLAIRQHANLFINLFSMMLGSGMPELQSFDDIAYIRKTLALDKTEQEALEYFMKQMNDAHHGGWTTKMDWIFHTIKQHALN
Sequence of PI3Kα (P27986 whole entry partner, species assumed): as the sequence (P27986 whole entry partner, species assumed) above
Method: as §1, §2, §3, §4, §5

FLT3 = FLT3 (Homo sapiens, UniProt P36888); assay: Kinase activity assay; type: biochemical; details: listed = inhibited more than 60%
Method: as §1, §2, §3, §4, §5

TrkA = TrkA (Homo sapiens, UniProt P04629); assay: Kinase activity assay; type: biochemical; details: listed = inhibited more than 60%
Sequence of TrkA (P04629 33-796, species assumed): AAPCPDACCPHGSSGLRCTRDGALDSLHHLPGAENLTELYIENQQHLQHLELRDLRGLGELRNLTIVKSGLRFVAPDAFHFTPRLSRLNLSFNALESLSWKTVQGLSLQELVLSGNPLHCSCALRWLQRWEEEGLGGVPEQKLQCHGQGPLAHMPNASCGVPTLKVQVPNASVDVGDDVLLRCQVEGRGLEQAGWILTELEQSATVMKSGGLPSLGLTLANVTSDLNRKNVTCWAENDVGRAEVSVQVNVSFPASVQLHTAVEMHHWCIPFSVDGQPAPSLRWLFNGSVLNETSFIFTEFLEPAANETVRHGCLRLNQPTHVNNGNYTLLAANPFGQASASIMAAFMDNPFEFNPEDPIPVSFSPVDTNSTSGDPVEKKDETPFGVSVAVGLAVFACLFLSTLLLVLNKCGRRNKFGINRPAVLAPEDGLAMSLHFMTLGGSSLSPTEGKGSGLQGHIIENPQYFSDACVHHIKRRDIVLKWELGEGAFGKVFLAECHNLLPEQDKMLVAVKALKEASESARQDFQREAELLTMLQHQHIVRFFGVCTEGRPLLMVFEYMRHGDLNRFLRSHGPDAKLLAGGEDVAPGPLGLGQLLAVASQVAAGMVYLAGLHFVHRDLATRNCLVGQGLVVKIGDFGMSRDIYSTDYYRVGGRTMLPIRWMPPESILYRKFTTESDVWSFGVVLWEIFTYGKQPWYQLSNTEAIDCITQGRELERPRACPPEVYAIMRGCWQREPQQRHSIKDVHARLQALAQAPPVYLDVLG
Method: as §1, §2, §3, §4, §5

PI3Kγ = PI3Kγ (Homo sapiens, UniProt P48736); assay: Kinase activity assay; type: biochemical; details: listed = inhibited more than 60%
Sequence of PI3Kγ (P48736 whole entry, species assumed): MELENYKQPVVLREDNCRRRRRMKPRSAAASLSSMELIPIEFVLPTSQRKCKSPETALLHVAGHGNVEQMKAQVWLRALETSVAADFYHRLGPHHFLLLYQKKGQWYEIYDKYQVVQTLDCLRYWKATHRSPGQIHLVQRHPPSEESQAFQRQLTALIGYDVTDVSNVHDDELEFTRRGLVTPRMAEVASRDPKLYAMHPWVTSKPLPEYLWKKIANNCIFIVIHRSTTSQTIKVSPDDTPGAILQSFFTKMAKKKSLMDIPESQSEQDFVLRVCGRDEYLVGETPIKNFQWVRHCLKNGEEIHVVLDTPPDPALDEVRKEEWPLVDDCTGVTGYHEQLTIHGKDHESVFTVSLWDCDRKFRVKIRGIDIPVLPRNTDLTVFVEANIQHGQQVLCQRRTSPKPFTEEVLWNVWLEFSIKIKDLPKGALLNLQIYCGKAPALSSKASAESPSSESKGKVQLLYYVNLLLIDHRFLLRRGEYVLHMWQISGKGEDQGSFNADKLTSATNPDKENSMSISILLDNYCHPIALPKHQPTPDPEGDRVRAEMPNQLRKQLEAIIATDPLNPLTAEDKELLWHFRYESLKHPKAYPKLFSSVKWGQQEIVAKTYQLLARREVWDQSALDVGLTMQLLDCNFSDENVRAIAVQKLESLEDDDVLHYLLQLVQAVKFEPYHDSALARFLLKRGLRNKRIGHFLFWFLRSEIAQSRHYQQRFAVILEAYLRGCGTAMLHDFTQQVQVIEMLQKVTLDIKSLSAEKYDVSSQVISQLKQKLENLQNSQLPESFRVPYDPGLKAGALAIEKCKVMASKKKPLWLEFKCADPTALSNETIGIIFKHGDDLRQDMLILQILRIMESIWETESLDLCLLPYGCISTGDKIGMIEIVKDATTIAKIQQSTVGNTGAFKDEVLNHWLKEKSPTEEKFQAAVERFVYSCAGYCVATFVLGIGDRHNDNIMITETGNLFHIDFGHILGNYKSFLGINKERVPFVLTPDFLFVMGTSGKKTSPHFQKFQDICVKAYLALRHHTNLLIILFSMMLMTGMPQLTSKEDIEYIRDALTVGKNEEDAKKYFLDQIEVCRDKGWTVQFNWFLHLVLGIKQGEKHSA
Method: as §1, §2, §3, §4, §5

PI3Kβ = PI3Kβ (Homo sapiens, UniProt P42338); assay: Kinase activity assay; type: biochemical; details: listed = inhibited more than 60%
Method: as §1, §2, §3, §4, §5

human tumor cell lines = assay: NCI in vitro cancer screen, whole panel (summary statements); type: cell-based
BT-549 = assay: NCI in vitro cancer screen, Breast Cancer; type: cell-based, human; details: for GI50 / CC50: Homo sapiens; for CC50: read-out: LC50 (the source's name)
Enterococci = assay: MIC screening, broth microdilution (CLSI)
Method: (§6) The minimum inhibition concentration (MIC) screening was performed with 14 bacterial strains and 4 compounds. The MICs were determined by the broth microdilution method according to the Clinical and Laboratory Standards Institute (CLSI) guidelines. The MIC screening was performed on 96-well plates containing the compounds in serial 2-fold dilutions from 64 to 0.06 μg/ml. The bacterial inoculations were prepared in cation-adjusted Mueller Hinton medium broth from cultures grown on appropriate agar plates which are prepared freshly every week. The growth controls and sterile controls were included in each assay plates. The assay plates were incubated in an ambient-air incubator at 35±2° C. for 16-20 hr (24 hr for MRSA), and bacterial growth was observed and recorded.
(§7) A. Revive bacterial strains from storage frozen (−80° C.) two days before the MIC screening. Streak onto surface of appropriate agar plates, and incubate the plates for 20-24 hr at 35±2° C. in an appropriate atmosphere.
Enterococci: TSA II, ambient air
(§8) B. Select 5-10 well-isolated colonies of similar morphology and restreak onto fresh agar plates using sterile loops. Incubate the plates for 20-24 hr at 35±2° C. in an appropriate atmosphere as above.
(§9) Compound stock solutions were prepared in 100% DMSO on the day of MIC screening and use immediately. Compound stock concentration=[(highest testing concentration)×103 μl/3 μl] (e.g. if the required highest testing concentration is 64 μg/ml in assay plates, stock concentration=64×103/3=2.2 mg/ml). The potency of testing compound is assumed as 100% unless otherwise stated whereas the potency of reference compound is calculated according to manufacturer's analysis data.
(§10) Eleven two-fold dilutions per compound were made then transferred 3 μl to each well of test plate. Final concentration of DMSO in the MIC screening is ˜3%.
B. Transfer colonies from fresh culture plates into 5 ml of saline with sterile loops and mix well. Measure and adjust turbidity to 0.5 McFarland barium sulphate standard using a turbidity meter. Alternatively, transfer 1-2 colonies into 500 μl of saline and adjust OD625 to ˜0.1 using a plate reader. C. Dilute bacterial inoculum 1:280 for Gram-positive and fastidious strains and 1:400 for Gram-negative strains into corresponding medium broth (CAMHB, CAMHB+3% lysed horse blood, HTM) (e.g. 35.6 μl of inoculum into 10 ml of CAMHB or 25 μl of inoculum into 10 ml of CAMHB). H. influenzae: HTM Streptococci: CAMHB+3% lysed horse blood Other strains in the panel: CAMHB 2.4. Prepare Assay Plates A. Add 100 μl of the bacterial inoculum to each well of the compound plates except wells B12, D12, F12 and H12. B. Add 100 μl of medium broth to wells B12, D12, F12 and H12 of the compound plates. C. Stack four plates together and cover with a sterile plate lid. Incubate in an ambient-air incubator at 35±2° C. for 16-20 hours (24 hours for MRSA). […] Perform Colony Counts A. Dilute the bacterial inoculum (0.5 McFarland) to a serial of 10-1 to 10-7 in saline solution (e.g. 100 μl bacterial inoculum+900 μl of saline). B. Spread 100 μl of each dilution (10-4, 10-5, 10-6, and 10-7) onto CAMHA plates in triplication, let the liquid soak into the agar for 10 minutes, invert the agar plates and incubate for 24 hr at 35±2° C. […] Record MICs and Calculate CFUs A. Open the compound plate layout in the compound management system, and check the assay plate barcode. B. Place the assay plate on the top of MIC reader, and adjust the magnification mirror to read each wells, record growth status as raw data. (Optional) Record photo image of each assay plates using high-speed high-resolution scanner. C. Determine MIC break points according to CLSI guideline. D. Count colonies and calculate CFU of bacterial inoculum.

Klebsiella pneumoniae = assay: MIC screening, broth microdilution (CLSI)
Method: as §6, §9, §10
(§11) B. Transfer colonies from fresh culture plates into 5 ml of saline with sterile loops and mix well. Measure and adjust turbidity to 0.5 McFarland barium sulphate standard using a turbidity meter. Alternatively, transfer 1-2 colonies into 500 μl of saline and adjust OD625 to ˜0.1 using a plate reader. […] Dilute bacterial inoculum 1:280 for Gram-positive and fastidious strains and 1:400 for Gram-negative strains into corresponding medium broth (CAMHB, CAMHB+3% lysed horse blood, HTM) (e.g. 35.6 μl of inoculum into 10 ml of CAMHB or 25 μl of inoculum into 10 ml of CAMHB). H. influenzae: HTM Streptococci: CAMHB+3% lysed horse blood Other strains in the panel: CAMHB 2.4. Prepare Assay Plates A. Add 100 μl of the bacterial inoculum to each well of the compound plates except wells B12, D12, F12 and H12. B. Add 100 μl of medium broth to wells B12, D12, F12 and H12 of the compound plates. […] Stack four plates together and cover with a sterile plate lid. Incubate in an ambient-air incubator at 35±2° C. for 16-20 hours (24 hours for MRSA). […] Perform Colony Counts A. Dilute the bacterial inoculum (0.5 McFarland) to a serial of 10-1 to 10-7 in saline solution (e.g. 100 μl bacterial inoculum+900 μl of saline). B. Spread 100 μl of each dilution (10-4, 10-5, 10-6, and 10-7) onto CAMHA plates in triplication, let the liquid soak into the agar for 10 minutes, invert the agar plates and incubate for 24 hr at 35±2° C. […] Record MICs and Calculate CFUs A. Open the compound plate layout in the compound management system, and check the assay plate barcode. B. Place the assay plate on the top of MIC reader, and adjust the magnification mirror to read each wells, record growth status as raw data. (Optional) Record photo image of each assay plates using high-speed high-resolution scanner. […] Determine MIC break points according to CLSI guideline. D. Count colonies and calculate CFU of bacterial inoculum.

Pseudomonas aeruginosa = assay: MIC screening, broth microdilution (CLSI)
Method: as §6, §9, §10, §11

Haemophilus influenzae = assay: MIC screening, broth microdilution (CLSI)
Method: as §6, §7
Haemophilus influenzae: chocolate agar, 5% CO2
as §8, §9, §10, §11

MRSA = assay: MIC screening, broth microdilution (CLSI)
Method: The MICs were determined by the broth microdilution method according to the Clinical and Laboratory Standards Institute (CLSI) guidelines. The MIC screening was performed on 96-well plates containing the compounds in serial 2-fold dilutions from 64 to 0.06 μg/ml. The bacterial inoculations were prepared in cation-adjusted Mueller Hinton medium broth from cultures grown on appropriate agar plates which are prepared freshly every week. The growth controls and sterile controls were included in each assay plates. The assay plates were incubated in an ambient-air incubator at 35±2° C. for 16-20 hr (24 hr for MRSA), and bacterial growth was observed and recorded.
as §7, §8, §9, §10, §11

[1] = Calculated Log partition coefficients (Log P)
Streptococci = assay: MIC screening, broth microdilution (CLSI)
Method: as §6, §7
Streptococci: TSA II, 5% CO2
as §8, §9, §10, §11

Staphylococcus aureus = assay: MIC screening, broth microdilution (CLSI)
Method: as §6, §9, §10, §11

Escherichia coli = assay: MIC screening, broth microdilution (CLSI)
Method: as §6, §9, §10, §11

[2] = tested on: Acinetobacter calcoaceticus; assay: MIC screening, broth microdilution (CLSI)
Method: as §6, §9, §10, §11

[3] = Enterococcus faecalis, ATCC29212, Enterococcus faecalis (ATCC 29212), Exp 1
[4] = Enterococcus faecalis, ATCC29212, Enterococcus faecalis (ATCC 29212), Exp 2
[5] = Enterococcus faecium, ATCC700221, Enterococcus faecium (ATCC 700221), Exp 1
[6] = Enterococcus faecium, ATCC700221, Enterococcus faecium (ATCC 700221), Exp 2
[7] = Staphylococcus aureus (ATCC 43300), Exp 2
[8] = Staphylococcus aureus (MRSA, Erythromycin & clindamycin-resistant), Exp 2
[9] = Staphylococcus aureus, ATCC43300 / MRSA
[10] = Streptococcus pneumoniae, ATCC49619, Streptococcus pneumoniae (ATCC 49619), Exp 1
[11] = Streptococcus pneumoniae, ATCC49619, Streptococcus pneumoniae (ATCC 49619), Exp 2
[12] = Streptococcus pneumoniae, Streptococcus pneumoniae (Erythromycin-resistant), Exp 1
[13] = Streptococcus pneumoniae, Streptococcus pneumoniae (Erythromycin-resistant), Exp 2
[14] = Streptococcus pyogenes, ATCC700942, Streptococcus pyogenes (ATCC 700942), Exp 1
[15] = Streptococcus pyogenes, ATCC700942, Streptococcus pyogenes (ATCC 700942), Exp 2
[16] = ATCC29213, Staphylococcus aureus (ATCC 29213), Exp 1
[17] = ATCC29213, Staphylococcus aureus (ATCC 29213), Exp 2
[18] = Staphylococcus aureus (Levofloxacin-resistant), Exp 1
[19] = Staphylococcus aureus (Levofloxacin-resistant), Exp 2

Structure (SMILES)	Kinases that inhibited more than 60% (CDK2/CyclinA2)	Kinases that inhibited more than 60% (PI3Kδ)	Kinases that inhibited more than 60% (PI3Kα)	Kinases that inhibited more than 60% (FLT3)	Kinases that inhibited more than 60% (TrkA)	Kinases that inhibited more than 60% (PI3Kγ)	Kinases that inhibited more than 60% (PI3Kβ)	inhibition of cancerous cell growth (human tumor cell lines; result in words)	MIC (Enterococci; [3]) [µg/mL]	MIC (Enterococci; [4]) [µg/mL]	MIC (Enterococci; [5]) [µg/mL]	MIC (Enterococci; [6]) [µg/mL]	MIC (Klebsiella pneumoniae) [µg/mL]	MIC (Klebsiella pneumoniae; Exp 2) [µg/mL]	MIC (Pseudomonas aeruginosa) [µg/mL]	MIC (Pseudomonas aeruginosa; Exp 2) [µg/mL]	MIC (Haemophilus influenzae) [µg/mL]	MIC (Haemophilus influenzae; Exp 2) [µg/mL]	MIC (MRSA; [7]) [µg/mL]	MIC (MRSA; [8]) [µg/mL]	further results
COc1cc(/C=C/c2cc(O)cc(O)c2CC=C(C)C)ccc1O [USYDS10, (E)-2-(3-methyl-2-buten-1-yl)-3,4′,5-trihydroxy-3′-methoxystilbene]	CDK2/CyclinA2	PI3Kδ	PI3Kα	FLT3	TrkA	PI3Kγ	PI3Kβ	structure dependent inhibition of cancerous cell growth	–	–	–	–	–	–	–	–	–	–	–	–	TGI (BT-549; BT-549, unit not printed (M)): 1.90E−5; GI50 (BT-549; BT-549, unit not printed (M)): 0.798 µM; CC50 (BT-549; BT-549, unit not printed (M)): 49.3 µM
CC(C)=CCOc1cc(O)cc(/C=C/c2ccc(O)c(O)c2)c1CC=C(C)C [USYDS14, (E)-2-(3-methyl-2-buten-1-yl)-3-(3-methyl-2-butenyloxy)-3′,4′,5-trihydroxystilbene]	–	–	–	–	–	–	–	structure dependent inhibition of cancerous cell growth	–	–	–	–	–	–	–	–	–	–	–	–	TGI (BT-549; BT-549, Breast Cancer): 1.63e-05 M; GI50 (BT-549; BT-549, Breast Cancer): 4.27 µM; CC50 (BT-549; BT-549, Breast Cancer): 46.9 µM
COc1cc(/C=C/c2cc(O)cc(OCC=C(C)C)c2)ccc1O [USYDS2, (E)-3-(3-methyl-2-butenyloxy)-4′,5-dihydroxy-3′-methoxystilbene]	–	PI3Kδ	–	–	TrkA	PI3Kγ	PI3Kβ	–	32 (≈ 98 µM)	32 (≈ 98 µM)	32 (≈ 98 µM)	32 (≈ 98 µM)	> 64	>64	> 64	>64	32 (≈ 98 µM)	32 (≈ 98 µM)	16 (≈ 49 µM)	16 (≈ 49 µM)	MIC (MRSA; [9]): 16 µg/mL (≈ 49 µM); MIC (MRSA; Staphylococcus aureus, MRSA): 16 µg/mL (≈ 49 µM); Log P relative to resveratrol [1]: almost twice that of the hydroxystilbene resveratrol; MIC (Streptococci; [10]): 32 µg/mL (≈ 98 µM); MIC (Streptococci; [11]): 32 µg/mL (≈ 98 µM); MIC (Streptococci; [12]): 32 µg/mL (≈ 98 µM); MIC (Streptococci; [13]): 64 µg/mL (≈ 196 µM); MIC (Streptococci; [14]): 64 µg/mL (≈ 196 µM); MIC (Streptococci; [15]): 64 µg/mL (≈ 196 µM); MIC (Staphylococcus aureus; [16]): 32 µg/mL (≈ 98 µM); MIC (Staphylococcus aureus; [17]): 16 µg/mL (≈ 49 µM); MIC (Staphylococcus aureus; [18]): 16 µg/mL (≈ 49 µM); MIC (Staphylococcus aureus; [19]): 16 µg/mL (≈ 49 µM); MIC (Escherichia coli; Exp 1): 64 µg/mL (≈ 196 µM); MIC (Escherichia coli; Exp 2): 32 µg/mL (≈ 98 µM); MIC [2]: > 64 µg/mL; MIC ([2]; Exp 2): >64 µg/mL
COc1cc(/C=C/c2cc(O)cc(OC)c2CC=C(C)C)ccc1O [USYDS1, (E)-2-(3-methyl-2-buten-1-yl)-4′,5-dihydroxy-3,3′-dimethoxystilbene]	CDK2/CyclinA2	PI3Kδ	PI3Kα	FLT3	TrkA	PI3Kγ	–	–	16 (≈ 47 µM)	16 (≈ 47 µM)	8 (≈ 23.5 µM)	16 (≈ 47 µM)	> 64	>64	> 64	>64	32 (≈ 94 µM)	32 (≈ 94 µM)	8 (≈ 23.5 µM)	8 (≈ 23.5 µM)	MIC (MRSA; [9]): 8 µg/mL (≈ 23.5 µM); MIC (MRSA; Staphylococcus aureus, MRSA): 8 µg/mL (≈ 23.5 µM); Log P relative to resveratrol [1]: almost twice that of the hydroxystilbene resveratrol; MIC (Streptococci; [10]): 32 µg/mL (≈ 94 µM); MIC (Streptococci; [11]): 32 µg/mL (≈ 94 µM); MIC (Streptococci; [12]): 32 µg/mL (≈ 94 µM); MIC (Streptococci; [13]): 32 µg/mL (≈ 94 µM); MIC (Streptococci; [14]): 64 µg/mL (≈ 188 µM); MIC (Streptococci; [15]): 64 µg/mL (≈ 188 µM); MIC (Staphylococcus aureus; [16]): 16 µg/mL (≈ 47 µM); MIC (Staphylococcus aureus; [17]): 8 µg/mL (≈ 23.5 µM); MIC (Staphylococcus aureus; [18]): 8 µg/mL (≈ 23.5 µM); MIC (Staphylococcus aureus; [19]): 8 µg/mL (≈ 23.5 µM); GI50 (human tumor cell lines; Homo sapiens, range over almost all types of tumor cells): 0.02 to 5 µM; fold more potent than piceatannol (human tumor cell lines; inhibition of proliferation of almost all types of tumor cells): approximately 250 fold; order of potency in the inhibition of cancerous cell growth (human tumor cell lines; result in words): most potent activity; MIC (Escherichia coli; Exp 1): 16 µg/mL (≈ 47 µM); MIC (Escherichia coli; Exp 2): 16 µg/mL (≈ 47 µM); MIC [2]: > 64 µg/mL; MIC ([2]; Exp 2): >64 µg/mL
